{"source": "patent US20160152942A1", "about": "“METHOD FOR ISOLATING HIGHLY FURFURAL RESISTANT STRAIN AND STRAIN ISOLATED BY THE METHOD” (priority 2014, published 2016)", "type_in_all_cases": "cell-based", "key": {"[1]": {"test_system": "Enterobacter cloacae strain GGT036 [Accession No. KCTC 12672BP]", "experiment": "Inhibition of growth by furfural (Test Example 2)", "conditions": "for pIC50: LB medium with 1% glucose, 30 °C", "description": "(§1) The term “IC50” refers to the concentration of the toxic substance required to inhibit the maximum growth of the microorganism by 50%.\nLB media were supplemented with 1% glucose as a carbon source to prepare culture media. To the culture media was added furfural at different concentrations of 20 mM, 40 mM, and 60 mM. The growth rates of the strain in the furfural-containing media were compared with the growth rate of the strain in the furfural-free medium.\nAfter 50 mL of each culture medium was added to an Erlenmeyer flask, Enterobacter cloacae strain GGT036 [Accession No. KCTC 12672BP] was inoculated at an initial OD600 of 1, followed by culture at 30 ° C.\n(§2) The half maximal inhibitory concentration (IC50) values of furfural were calculated. As a result, the IC50 value against Enterobacter cloacae strain GGT036 [Accession No. KCTC 12672BP]"}, "[2]": {"test_system": "E. coli", "experiment": "Inhibition of growth by furfural, IC50 (Test Example 2)", "conditions": "Escherichia coli; against E. coli; read-out: half maximal inhibitory concentration (IC50) of furfural", "description": "as §1, §2"}, "[3]": {"test_system": "Corynebacterium glutamicum", "experiment": "Inhibition of growth by furfural, IC50 (Test Example 2)", "conditions": "against Corynebacterium glutamicum; read-out: half maximal inhibitory concentration (IC50) of furfural"}, "[4]": {"test_system": "Corynebacterium glutamicum (Comparative Example 2)", "experiment": "Resistance to furfural, growth by turbidity (Test Example 1)", "conditions": "30 mM furfural, LB with 1% glucose, 30 °C, 24 h", "description": "(§3) The degrees of growth of Enterobacter cloacae strain GGT036 [Accession No. KCTC 12672BP], E. coli (Comparative Example 1), and Corynebacterium glutamicum (Comparative Example 2) in media containing 30 mM furfural were compared by turbidity measurements to identify the resistance of Enterobacter cloacae strain GGT036 to furfural.\n(§4) The media used were LB media supplemented with 1% glucose. An observation was made to determine the dependence of the growth of the strains in the media containing 30 mM furfural (FIG. 2B) and the furfural-free media (FIG. 2A) on the presence or absence of furfural.\n(§5) After 7 mL of each medium was added to a glass tube (24 mm), the colonies obtained in Example 1 were inoculated into the medium, followed by culture at 30° C. for 24 h."}, "[5]": {"test_system": "E. coli (Comparative Example 1)", "experiment": "Resistance to furfural, growth by turbidity (Test Example 1)", "conditions": "30 mM furfural, LB with 1% glucose, 30 °C, 24 h", "description": "as §3, §4, §5"}, "[6]": {"test_system": "Enterobacter cloacae strain GGT036 [Accession No. KCTC 12672BP]", "experiment": "Resistance to furfural, growth by turbidity (Test Example 1)", "conditions": "30 mM furfural, LB with 1% glucose, 30 °C, 24 h", "description": "as §3, §4, §5"}}, "note": "pIC50: −log10 of the molar value. Like-named read-outs stand apart in the source and are kept apart here."}
{"compound": "O=Cc1ccco1", "note": "[furfural]", "values": [{"measurement": "OD value of culture", "setting": "[1]; 60 mM furfural, after 30 h of culturing, initial OD600 of 1", "value": "≤ 2"}, {"measurement": "pIC50", "setting": "[1]; Enterobacter cloacae, read-out: half maximal inhibitory concentration (IC50) of furfural, against Enterobacter cloacae strain GGT036", "value": "1.26 to 1.35"}, {"measurement": "growth rate of strain", "setting": "[1]; furfural concentration increasing from 0 mM to 40 mM", "value": "slightly retarded"}, {"measurement": "pIC50", "setting": "[1]; read-out: half maximal inhibitory concentration (IC50) of furfural, against Enterobacter cloacae strain GGT036", "value": 1.32}, {"measurement": "pIC50", "setting": "[2]", "value": 1.60}, {"measurement": "pIC50", "setting": "[3]", "value": 2.00}, {"measurement": "growth of strain in furfural-containing medium", "setting": "[4]", "value": "not grown"}, {"measurement": "growth of strain in furfural-containing medium", "setting": "[5]", "value": "not grown"}, {"measurement": "growth of strain in furfural-containing medium", "setting": "[6]", "value": "cell growth was observed"}]}
